Measured values: publication PMC13252604, “First Generation Proteolysis Targeting Chimeras (PROTACs) for the Treatment of Progeria” (Advanced Science, 2026)

Legend:
[1] = tested on: Lmna^+/+ fibroblasts; test: Cell viability assay (MTT); assay type: cell-based, mouse; settings: up to 50 µM, 24 h
Description: (§1) Cpd!" 2 Cpd#$ 9 Cpd!" 2 Cpd#$ 9
(§2) Supporting Figure S3. Cellular cytotoxicity of compounds 2 and 9. Viability of progeroid […]/G609G and wild type Lmna+/+ fibroblasts treated with compounds at 5-50 µM for 24 h. Viability is expressed as the percentage relative to cells treated with vehicle (0.1% DMSO) which are considered 100% viable. Error bars represent the average±SD from three independent experiments carried out in duplicate.
(§3) (also on this page, place not known: !" #$**+,-./-*-01+234 !" #$**+,-./-*-01+234 Cpd2 Cpd2Cpd9 Cpd9) […]
(§4) was saturated at 100 ppm. Relative STD effects were calculated by comparing the intensity of the signals in the STD-NMR spectrum with signal intensities of the reference spectrum (off-resonance). The STD signal with the highest intensity was set to 100%, a nd other STD signals were calculated accordingly. […]
(§5) Cell viability was assessed as previously described.[64] […] Once supernatants were removed, formazan crystals previously formed by viable cells were dissolved in DMSO (100 μL/ well) and absorbance was measured at 570 nm (OD570-630) using an Asys UVM 340 (Biochrom Ltd., Cambridge, UK) microplate reader. Background absorbance from blank wells containing only media with compound or vehicle were subtracted from each test well. […]

[2] = tested on: Lmna^G609G/G609G fibroblasts; test: Cell viability assay (MTT); assay type: cell-based, mouse; settings: up to 50 µM, 24 h
Description: as §1, §2, §3, §4, §5

[3] = tested on: Lmna^G609G/G609G fibroblasts; test: RT-qPCR of senescence markers in mouse progeroid cells; assay type: cell-based; settings: 5 µM
Description: Confocal fluorescence microscopy images are representative of 2 independent experiments. […] Representative cropped immunoblots are shown. […] MW, molecular weight (in kDa) markers. (C) PROTAC 2 decreases senescence‐associated β‐galactosidase (SA‐βgal) activity, interleukin (IL) 1α and p16 senescent markers. Lmna^G609G/G609G (G609G) or Lmna^+/+ (WT) fibroblasts were incubated with vehicle or compound 2 (5 µM). […] Data were analysed using one‐way ANOVA followed by Dunnett's post–hoc test. ^*, p < 0.05; ^**, p < 0.01, ^***, p < 0.001, ^****, p < 0.0001 vs G609G cells. […]
ferrocyanide, 0.6 mL 5 M NaCl, 0.2 mL 0.2 M MgCl2, (all from Sigma Aldrich) and 6.2 mL of deionized water in a total volume of 20 mL] in the dark in a humidified incubator at 37 °C for 24 h without CO2 supply. Then, an equal volume of the supernatant of each well was transferred to a new 96-well plate for fluorescence measurement. The resultant production of fluorescein was measured using a FluoStar Optima instrument (BMG Labtech) with an excitation of 485 nm and emission at 535 nm. […]
Total RNA was extracted by RNAeasy Mini Kit (Qiagen) according to the manufacturer instructions and subsequently quantified using the NanoPhotometer N60 (Implen). […] Quantitative real-time PCR was run in the QuantStudio 7FLEX (Applied Biosystems) system and results were normalized according to β-actin quantification. […]

CC1(C)Oc2cc3oc(=O)ccc3cc2C[C@@H]1OC(=O)CCCCCNc1cccc2c1C(=O)N(C1CCC(=O)NC1=O)C2=O (stereo partly shown) [compound 2]
cytotoxicity (cell viability) [1]: did not induce significant cytotoxicity | cytotoxicity (cell viability) [2]: did not induce significant cytotoxicity | interleukin (IL) 1α senescent marker [3]: significantly reduced | p16 senescent marker [3]: significantly reduced
